Data reported in PubChem BioAssay AID2305 (GlaxoSmithKline (GSK), 2010).
Where “and” joins values, the source holds several entries; their conditions need not be identical. Identical values can stand only once.

Test system: P. falciparum 3D7 growth, pLDH absorbance
Test: blood-stage malaria parasite growth potency – strain 3D7, dose response (AID 2305)

Row | SMILES | IC50
1 | O=C(NC1CCN(Cc2ccccc2)CC1)c1ccc(CNC2CCN(Cc3ccccc3)CC2)cc1 | 870 nM
2 | Cc1nc(-c2cccc(Nc3nccc(NCC(O)c4ccccc4C(F)(F)F)n3)c2)cs1 (centres undefined) | 830 nM
3 | COc1ccc(-c2ccc(NC(=O)c3ccc(Cl)cc3)cc2)cc1CN(C)CCN(C)C | 670 nM
4 | CCCCCC(C)C(C)c1cc(O)c2c3c(c(=O)oc2c1)CN(Cc1ccccc1)CC3 (centres undefined) | 600 nM
5 | CC(C)c1ccc(OCC(O)CN(CCN2CCOCC2)C(=O)Nc2ccc(Br)cc2)cc1 (centres undefined) | 720 nM
6 | Cc1ccc(CNC(=O)c2cc3c(=O)n4ccccc4nc3n(CCCN3CCOCC3)c2=N)cc1 | 1090 nM
7 | COc1cc(C=CC(=O)NC2CCC(CN3CCC(c4c[nH]c5ccccc45)CC3)CC2)cc(OC)c1 (centres undefined) | 810 nM
8 | CN1CCN(c2ccc(Nc3nccc(-c4cnn5ncccc45)n3)cc2Cl)CC1 | 830 nM
9 | Cc1ccc(CC(C)NCC(O)c2cccc([N+](=O)[O-])c2)cc1 (centres undefined) | 760 nM
10 | Oc1ccc2ccccc2c1CNC1CCCCCC1 | 930 nM
11 | COc1ccc2[nH]cc(C3=CCN(Cc4ccccc4)CC3)c2c1 | 570 nM
12 | CCc1c(CCNCCCCCCNCCc2ccc(OC)c(OC)c2C)ccc(OC)c1OC | 1570 nM
13 | COC(=O)Nc1cc(C(F)(F)F)ccc1N1CCC(CNS(=O)(=O)c2ccc(OC)cc2)CC1 | 250 nM
14 | CC(=O)N1N=C(c2ccc(Cl)cc2)Sc2c1nc(C1CCCCC1)n2C(C)=O | 250 nM
15 | CCc1c(C)nc(-n2nc(C)cc2NC(=O)C2c3ccccc3Oc3ccccc32)[nH]c1=O | 950 nM
16 | CCOc1ccc(Br)cc1/C=C/C(=O)Nc1ccc2c(c1)CCCN(C)C2 | 1050 nM
17 | COc1cccc(CN2CCCC(CCC(=O)Nc3ccc(C(F)(F)F)cc3)C2)c1O (centres undefined) | 750 nM
18 | Nc1nc(N)c2c(n1)CCc1cc(Br)ccc1-2 | 1130 nM
19 | Cc1ccc2nc(C)n(C3CCN(C(=O)Cc4ccc(F)c(F)c4)CC3)c2c1 | 470 nM
20 | COc1cccc(NC(=O)c2ccc(NCCCN3CC(C)CC(C)C3)c([N+](=O)[O-])c2)c1 (centres undefined) | 720 nM
21 | Cc1ccc2c(c1)nc(N)n2C[C@H](O)c1ccccc1 | 580 nM
22 | Cc1c(C)c2c(c(C)c1O)CC[C@](C)(C(=O)N1CCC(CCN3CCC(c4c[nH]c5ccccc45)CC3)CC1)O2 | 830 nM
23 | ON=C1CCc2cc(-c3nc(-c4ccc(OCCN5CCCCC5)cc4)[nH]c3-c3ccncc3)ccc21 | 800 nM
24 | CC(=O)Nc1ccc(C(=O)Nc2cccc(-c3cccc(-c4nc5c(C)cccc5[nH]4)c3)c2)cn1 | 60 nM
25 | COc1ccc2nccc([C@@H](O)CN3CCC(NCc4ccc5c(n4)NCCC5)CC3)c2c1 | 740 nM

Row | SMILES | IC50
26 | O=c1ccc(CNc2nc(NCCc3ccccc3)nc3cc(Cl)ccc23)c[nH]1 | 300 nM
27 | CCNc1cc(C(=O)N[C@@H](Cc2ccccc2)[C@H](O)CNCCc2cccc3ccccc23)cc(N2CCCC2=O)c1 | 980 nM
28 | CN(C)c1cccc(-c2cnc3ccc(NCc4cccc(Cl)c4)nn23)c1 | 700 nM
29 | O=c1cc(NCCCNCc2cccc3c2OC(F)(F)O3)[nH]c2ccccc12 | 950 nM
30 | CCc1cc2c3c(N)nc(N)nc3ccc2n1C(CC)CC | 60 nM
31 | Cc1ccc(C(NC(=O)C2CCCCC2)c2ccc3cccnc3c2O)cc1 (centres undefined) | 950 nM
32 | CC(=O)N1N=C(c2ccc(Cl)cc2)Sc2c1nc(-c1ccccc1)n2C(C)=O | 490 nM
33 | Nc1cccc(CNCc2cccc(-c3cccc(-c4nc5ccc(C(F)(F)F)cc5[nH]4)c3)c2)c1 | 510 nM
34 | Cc1cc(NCc2ccccc2)nc2cc(O)ccc12 | 780 nM
35 | CCOC(=O)c1ccc(CC(C)NCC(O)c2cccc(C(F)(F)F)c2)cc1 (centres undefined) | 220 nM
36 | CC1CCCC(Nc2noc(-c3sccc3Br)n2)C1 (centres undefined) | 690 nM
37 | CCOc1cccc(C(=O)Nc2nonc2-c2ccc(OC)c(OC)c2)c1 | 1020 nM
38 | NC1CCCN(Cc2cccc(-c3ccc(-c4nc5ccc(C(F)(F)F)cc5[nH]4)cc3)c2)C1 (centres undefined) | 520 nM
39 | O=C(Cc1ccccc1)NC(c1ccccc1)c1ccc2cccnc2c1O (centres undefined) | 950 nM
40 | CCCn1c(=N)c(C(=O)NCCc2ccccc2)cc2c(=O)n3cccc(C)c3nc21 | 1120 nM
41 | Cc1cc(Cl)c(Cl)cc1NC(=O)Nc1cccc(C(F)(F)F)c1 | 870 nM
42 | O=C(Nc1cccc(-c2nn3ccccc3c2-c2ccnc(Nc3ccc(NCCCN4CCOCC4)c(F)c3)n2)c1)c1c(F)cccc1F | 260 nM
43 | CCN(CC)CCN(Cc1ccc(-c2ccc(C(F)(F)F)cc2)cc1)C(=O)Cn1c(CCc2c(F)cccc2F)nc(=O)c2ccccc21 | 640 nM
44 | COc1ccccc1N=C1SC(=Cc2cn(CC(=O)N3CCCc4ccccc43)c3ccccc23)C(=O)N1C1CCCCC1 | 30 nM
45 | Cc1ccc(/C=C/C(=O)NC2CCC(CN3CCC(c4c[nH]c5ccccc45)CC3)CC2)cc1 (centres undefined) | 920 nM and 800 nM
46 | CS(=O)(=O)NCCCNCc1cccc(-c2ccc(-c3nc4ccccc4[nH]3)s2)c1 | 1080 nM
47 | Cc1ccc(NC(=O)c2cccc(CN3CCCN(CC4CCCCC4)CC3)c2)cc1F | 600 nM
48 | CCN(CC)CCN(CCN(CC)CC)c1ccc2c(c1)Sc1c(Cl)ccc(Cl)c1S2 | 880 nM
49 | CC1CN(Cc2ccc(C#N)cc2)CCN1c1ccc(NC(=O)c2cccs2)cc1 (centres undefined) | 810 nM
